Laboratory results taken from US11078170B2 (Assembly Biosciences, Inc., priority 2017, dated 2021).

Tested on: HBV viral production from HepAD38 cells
Assay: Activity of test compounds on viral production from HepAD38 cells (viral load by qPCR of HBV core sequence in supernatant)
Format: cell-based
Settings: Hepatitis B virus, 120 h, 5 days incubation, HBV DNA in supernatant by qPCR, top concentration 10 μM, read-out: Viral Load EC50 Activity range
Method in brief: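 HepAD38 cells, 50,000/well in tetracycline-free 2% FBS medium, treated 5 days at 37° C. with compound from 10 μM top concentration. HBV DNA in supernatant quantified by TaqMan qPCR of core sequence against DNA standards, relative to DMSO wells; CellTiter-Glo viability read in parallel. EC50/CC50 from four-parameter logistic fit.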

**Q.** For CN1C(C(=O)Nc2cccc(Br)c2)CC(c2cccs2)NS1(=O)=O (stereo not drawn) [HBV-CSU-017, Cis-N-(3-Bromophenyl)-2-methyl-5-(thiophen-2-yl)-1,2,6-thiadiazinane-3-carboxamide 1,1-dioxide], which EC50 is on record?
**A.** Its EC50 is < 1 µM.

**Q.** Which EC50 does the source give for CN1[C@H](C(=O)Nc2cccc(Br)c2)C[C@H](c2cccs2)NS1(=O)=O [HBV-CSU-017-ISO-I, Cis-N-(3-Bromophenyl)-2-methyl-5-(thiophen-2-yl)-1,2,6-thiadiazinane-3-carboxamide 1,1-dioxide] here?
**A.** The EC50 was < 1 µM.

**Q.** With CN1C(C(=O)Nc2ccc(Cl)c(F)c2)CC(c2cccs2)NS1(=O)=O (stereo not drawn) [HBV-CSU-018, Cis-N-(4-Chloro-3-fluorophenyl)-2-methyl-5-(thiophen-2-yl)-1,2,6-thiadiazinane-3-carboxamide 1,1-dioxide] as the molecule, how does the EC50 read?
**A.** Its EC50 is 1 to 5 µM.

**Q.** How did the EC50 turn out when CN1C(C(=O)Nc2ccc(C#N)cc2)CC(c2cccs2)NS1(=O)=O (stereo not drawn) [HBV-CSU-019, Cis-N-(4-cyanophenyl)-2-methyl-5-(thiophen-2-yl)-1,2,6-thiadiazinane-3-carboxamide 1,1-dioxide] was run?
**A.** Its EC50 is > 5 µM.

**Q.** CN1[C@H](C(=O)Nc2cccc(C#N)c2)C[C@H](c2cccs2)NS1(=O)=O [HBV-CSU-020-ISO-I, Cis-N-(3-cyanophenyl)-2-methyl-5-(thiophen-2-yl)-1,2,6-thiadiazinane-3-carboxamide 1,1-dioxide] was tested. Which EC50 did it give?
**A.** Its EC50 is < 1 µM.

**Q.** Which EC50 does the source give for CN1C(C(=O)Nc2ccc(F)c(Cl)c2)CC(c2cccs2)N(C)S1(=O)=O (stereo not drawn) [HBV-CSU-023, Cis-N-(3-Chloro-4-fluorophenyl)-2,6-dimethyl-5-(thiophen-2-yl)-1,2,6-thiadiazinane-3-carboxamide 1,1-dioxide] here?
**A.** Its EC50 is 1 to 5 µM.

**Q.** For COCCN1[C@@H](C(=O)Nc2ccc(F)c(Cl)c2)C[C@@H](c2cccs2)NS1(=O)=O [HBV-CSU-025-ISO-I, Cis-N-(3-chloro-4-fluorophenyl)-2-(2-methoxyethyl)-5-(thiophen-2-yl)-1,2,6-thiadiazinane-3-carboxamide 1,1-dioxide], which EC50 is on record?
**A.** The EC50 was > 5 µM.

**Q.** How did the EC50 turn out when COCCN1[C@H](C(=O)Nc2ccc(F)c(Cl)c2)C[C@H](c2cccs2)NS1(=O)=O [HBV-CSU-025-ISO-II, Cis-N-(3-chloro-4-fluorophenyl)-2-(2-methoxyethyl)-5-(thiophen-2-yl)-1,2,6-thiadiazinane-3-carboxamide 1,1-dioxide] was run?
**A.** The EC50 was < 1 µM.

**Q.** CN1[C@@H](C(=O)Nc2ccc(F)c(Cl)c2)C[C@@H](c2nccs2)NS1(=O)=O [HBV-CSU-027-ISO-I, Cis-N-(3-chloro-4-fluorophenyl)-2-methyl-5-(thiazol-2-yl)-1,2,6-thiadiazinane-3-carboxamide 1,1-dioxide] was tested. Which EC50 did it give?
**A.** Its EC50 is > 5 µM.

**Q.** For CN1[C@H](C(=O)Nc2ccc(F)c(Cl)c2)C[C@H](c2ccc(F)s2)NS1(=O)=O [HBV-CSU-029-ISO-I, Cis-N-(3-chloro-4-fluorophenyl)-5-(5-fluorothiophen-2-yl)-2-methyl-1,2,6-thiadiazinane-3-carboxamide 1,1-dioxide], which EC50 is on record?
**A.** Its EC50 is < 1 µM.

**Q.** CN1[C@H](C(=O)Nc2ccc(F)c(Cl)c2)C[C@H](c2ccccn2)NS1(=O)=O [HBV-CSU-031-ISO-I, Cis-N-(3-Chloro-4-fluorophenyl)-2-methyl-5-(pyridin-2-yl)-1,2,6-thiadiazinane-3-carboxamide 1,1-dioxide] was tested. Which EC50 did it give?
**A.** Its EC50 is < 1 µM.

**Q.** For CN1[C@@H](C(=O)Nc2ccc(F)c(Cl)c2)C[C@@H](c2ccccn2)NS1(=O)=O [HBV-CSU-031-ISO-II, Cis-N-(3-Chloro-4-fluorophenyl)-2-methyl-5-(pyridin-2-yl)-1,2,6-thiadiazinane-3-carboxamide 1,1-dioxide], which EC50 is on record?
**A.** The EC50 was > 5 µM.

**Q.** Which EC50 does the source give for CN1C(C(=O)Nc2ccc(F)c(Cl)c2)CC(c2ccc(F)cn2)NS1(=O)=O (stereo not drawn) [HBV-CSU-032, Cis-N-(3-Chloro-4-fluorophenyl)-5-(5-fluoropyridin-2-yl)-2-methyl-1,2,6-thiadiazinane-3-carboxamide 1,1-dioxide] here?
**A.** Its EC50 is < 1 µM.

**Q.** CN1[C@H](C(=O)Nc2ccc(F)c(Cl)c2)C[C@H](c2ccc(F)cn2)NS1(=O)=O [HBV-CSU-032-ISO-I, Cis-N-(3-Chloro-4-fluorophenyl)-5-(5-fluoropyridin-2-yl)-2-methyl-1,2,6-thiadiazinane-3-carboxamide 1,1-dioxide] was tested. Which EC50 did it give?
**A.** The EC50 was < 1 µM.
